Test [1] concerns the target T1, human Werner helicase (WRN, Uniprot Q14191, amino acids 517-1235 with L1074F point mutation; WRN-BV08) (Homo sapiens, UniProt Q14191, L1074F).
T1 construct: Uniprot Q14191, amino acids 517-1235 with L1074F point mutation; 8xHis (C, cleaved yes); TEV cleavage site (ENLYFQG) (C, cleaved yes); made in house; host or cells: Sf9 insect cells (baculovirus, pFastBac)
The test is described as follows: WRN (BV08) ADP-Glo assay. The format is biochemical. The settings on record: WRN-BV08 (aa 517-1235, L1074F); read-out: ADP-Glo_hWRN_IC50. An excerpt:
Example 2: WRN (BV08) ADP-Glo Assay Protocol
Bovine skin gelatin (BSG), dimethyl sulfoxide (DMSO), Pluronic F-127 and tris(2-carboxyethyl)phosphine hydrochloride solution (TCEP) were purchased from Sigma-Aldrich (St. Louis, MO) at the highest level of purity possible. Bicine buffer solution was purchased from Alfa Aesar (Tewksbury, MA) and compound NSC-617145 was purchased from Tocris (Minneapolis, MN). DNA duplex was synthesized at BGI (Shenzhen, China) and was composed of strand 1 with the sequence 5′-[…]-3′ (SEQ ID NO.: 1) and strand 2 with the sequence 5′-[…]-3′ (SEQ ID NO.: 2). DNA strands were annealed by heating to 95° C. for 5 minutes followed by slow cooling to room temperature. Compounds in 100% DMSO ([…]) were spotted into a 384-well white polystyrene Optiplate-384 (Perkin Elmer; Waltham, MA) assay plate using a LabCyte Echo 550 (Agilent; Santa Clara, CA). DMSO ([…]) was added to columns 12, rows A-H and column 24, rows I-P for the maximum signal control. Compound NSC-617145 ([…]) was added to columns 12, rows I-P and 24, rows A-H for the minimum signal control (100% inhibition). Compounds/DMSO were preincubated for 15 minutes at 25° C. with […] 2×WRN (BV08), prepared as described below, in assay buffer containing 20 mM Bicine (pH=7.5), 1 mM MgCl2, 10 mM KCl, 0.1% Pluronic F-127, 0.005% BSG, 1 mM TCEP. The reaction was initiated by the addition of […] 2× substrate mixture in assay buffer and incubated for 60 minutes at 25° C. The final concentrations of the assay components were 0.15 nM WRN, […], and 0.1 nM DNA duplex. The final DMSO concentration was 1% and the reference compound concentration (NSC-617145) used for the minimal signal control was […]. The reaction was stopped by the addition of the ADP-Glo Kit components (Promega; Madison, WI) as directed and the relative luminescence units (RLU) were read on an Envision 2104 (Perkin Elmer; Waltham, MA).
% Inhibition Calculation:
Where RLU=relative luminescence units, sample=signal in sample well, and MIN and MAX are the respective minimum and maximum signal controls.
Four-Parameter IC50 Fit Equation:
Where top and bottom are normally allowed to float but may be fixed at 100 or 0 respectively in a 3-parameter fit. Y is the % inhibition and X is the compound concentration.
Molecular Biology and virus production. The DNA encoding human Werner helicase (Uniprot Q14191, amino acids 517-1235 with L1074F point mutation) was generated with codon-optimization for […] expression and subcloned into the pFastBac vector with a TEV cleavable 8×His tag (SEQ ID NO: 5) (WRN—BV08). The baculovirus from the expression plasmid WRN—BV08 was generated from transfection and amplification following the manufacturer's instructions.
Sf9 cells grown in SF900II media were infected with 1:200 WRN—BV08 P2 virus and incubated for protein expression for 72 h at 27° C. The WRN protein was purified using the following protocol. The cell pellets were thawed and resuspended in buffer A (50 mM Tris, pH 7.5, 500 mM NaCl, 1 mM TCEP, 10% Glycerol) supplemented with 0.5% CHAPS, 1 mM PMSF, 1 μg/ml Leupeptin, 1 μg/ml Pepstatin, and the Pierce Universal Nuclease and cocktail tablet. Cleared lysates were loaded onto a Ni Sepharose™ excel column and washed with buffer A and bound protein was eluted with buffer A supplemented with 300 mM imidazole. The eluted protein was dialyzed against buffer A and digested by His-tagged TEV (1:5 ratio) overnight at 4° C. ZnCl2 was added into the sample at final 15 μM before loading onto a second Ni Sepharose™ excel column. Untagged WRN protein was eluted from the column with buffer A supplemented with 20 mM imidazole, dialyzed overnight into buffer B (50 mM Tris, pH 7.5, 1 mM TCEP, 10% Glycerol) supplemented with 150 mM NaCl and loaded onto a Heparin column. Proteins were eluted with a step gradient of buffer B supplemented with 150 mM, 200 mM, 300 mM and 500 mM NaCl. […]
A general note: In ADP-Glo the light output rises with the ADP produced.

The test system of test [2] is p21 induction in HCT 116 cells. The test is described as follows: p21 induction in cells (In-Cell Western, p21/GAPDH ratio). Format: cell-based. The conditions noted are these: Homo sapiens, HCT-116, 24 h, 24 h compound incubation, read-out: P21_EC50. Here is the method:
Example 3: Method for Determining Effect on p21 Induction in Cells
The colon carcinoma cell line HCT 116 was obtained from ATCC and cultured in growth medium consisting of Mccoy's 5A Medium (Gibco 16600108) supplemented with 10% FBS (Transgene FS201-02) and 100 units/mL penicillin-streptomycin (Gibco 15140122) and maintained at 37° C. under 5% CO2. On the day of seeding, 2,000 cells in 30 μL of culture media were plated per well to Poly-D-Lysine 384 Well Black Clear Plates (Biocoat 356663) and incubated overnight at 37° C. under 5% CO2. The following day, compounds were serially diluted in DMSO for a total of 11 test concentrations. The typical starting concentration of compounds was 10 μM with 2-fold dilutions. Next, 150 nL of diluted compound was added in duplicate to the assay plate, using an Echo 655 (Labcyte). The plate was centrifuged at 500 RPM for 1 min and then incubated at 37° C. under 5% CO2 for 24 h. After 24h, medium was removed, and cells were fixed by adding 40 μL of 4% paraformaldehyde solution to each well and incubated for 20 min at room temperature. The plate was then washed 4 times with 100 μL per well of wash buffer (PBS with 0.1% Tween-20) using a microplate washer. Next, 30 μL of ice-cold methanol was added to each well and the plate was incubated at −20° C. for 10 min. The plate was washed 4 times with 100 μL per well of wash buffer by a microplate washer, then 30 μL per well of blocking buffer (Intercept PBS blocking buffer (LI-COR 927-70001) with 0.05% Tween-20) was added and the plate was incubated at room temperature with shaking for 2h. Next, to each test well, 20 μL of primary antibody solution (p21 Waf1/CIP (12D1) RabbitmAb (Cell Signaling Technologies 2947) diluted 1:1000 and GAPDH (D4C6R) Mouse mAb (Cell Signaling Technologies 97166) diluted 1:2000 in blocking buffer) was added and the plate was placed at 4° C., overnight. The following day, the plate was washed 5 times with 100 μL per well of wash buffer using a microplate washer for 5 min. 20 μL per well of secondary antibody (IRDye 680CW Goat anti-Mouse IgG (H+L) (LI-COR 926-68070) diluted 1: 2000 in Blocking Buffer and IRDye 800CW Goat anti-Rabbit IgG (H+L) (LI-COR 926-32211) diluted 1: 2000 in Blocking Buffer) was then added and the plate was stored for 2h in the dark at room temperature with shaking. The plate was then washed 4 times with 100 μL per well of wash buffer again using a microplate washer. Finally, the p21 signal and the GAPDH signal were quantified using a LI-COR Odyssey CLx Imager machine reading at 800 nm and 700 nm, respectively. Each plate contained DMSO control (low control) and an internal reference WRN inhibitor (high control) respectively. For quantitation, the 800 nm/700 nm ratio was calculated for each well to give fold p21 induction and then percent activation for each compound well was calculated as follows (100×(ratio cpd well−ratio low control)/(ratio high control−ratio low control)). EC50 values for each compound were generated after non-linear regression curve fitting using commercially available software.

A value given as a limit tells only on which side of the number the result lay.

T1 sequence (Q14191 with tags, fused parts or gaps L1074F): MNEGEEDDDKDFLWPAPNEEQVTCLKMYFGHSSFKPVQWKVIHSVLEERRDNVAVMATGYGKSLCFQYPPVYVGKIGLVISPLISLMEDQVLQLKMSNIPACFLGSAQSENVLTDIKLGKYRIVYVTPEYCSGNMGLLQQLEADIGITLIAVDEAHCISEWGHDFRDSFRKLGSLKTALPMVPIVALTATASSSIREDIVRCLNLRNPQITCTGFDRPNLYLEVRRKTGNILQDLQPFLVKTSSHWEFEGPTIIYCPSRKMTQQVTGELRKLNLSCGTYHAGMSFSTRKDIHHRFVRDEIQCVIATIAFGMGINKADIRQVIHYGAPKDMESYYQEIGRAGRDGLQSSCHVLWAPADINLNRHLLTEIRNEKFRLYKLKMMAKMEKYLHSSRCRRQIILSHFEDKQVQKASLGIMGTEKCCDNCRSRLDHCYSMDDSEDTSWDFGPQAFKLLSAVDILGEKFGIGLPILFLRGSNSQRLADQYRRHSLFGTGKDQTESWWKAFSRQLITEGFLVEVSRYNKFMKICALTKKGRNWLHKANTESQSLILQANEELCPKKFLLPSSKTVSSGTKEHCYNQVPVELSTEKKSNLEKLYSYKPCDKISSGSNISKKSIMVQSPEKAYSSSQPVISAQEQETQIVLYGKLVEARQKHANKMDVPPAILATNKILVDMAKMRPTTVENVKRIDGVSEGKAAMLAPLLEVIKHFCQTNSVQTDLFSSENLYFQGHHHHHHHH

On to `CCc1c(N2CCN(C(=O)c3ncnc(C)c3O)[C@H]3CC[C@@H]32)c(=O)c2nc(N(C)C)cnc2n1CC(=O)NC1CC2(CCCC2)C1` [I-230, 2-(2-(dimethylamino)-6-ethyl-7-((1S,6S)-5-(5-hydroxy-6-methylpyrimidine-4-carbonyl)-2,5-diazabicyclo[4.2.0]octan-2-yl)-8-oxopyrido[2,3-b]pyrazin-5(8H)-yl)-N-(spiro[3.4]octan-2-yl)acetamide], for which the IC50 in test [1] lay in the range of 5 to 50 nM. Further, in test [2], the EC50 was greater than 5000 nM.

As for `CCc1c(N2CCN(C(=O)c3ncnc(C)c3O)CC2)c(=O)n2nc(-c3ccnc(OC)c3)nc2n1CC(=O)NC12CC(C(C)C)(C1)C2` [I-40, 2-(5-ethyl-6-(4-(5-hydroxy-6-methylpyrimidine-4-carbonyl)piperazin-1-yl)-2-(2-methoxypyridin-4-yl)-7-oxo-[1,2,4]triazolo[1,5-a]pyrimidin-4(7H)-yl)-N-(3-isopropylbicyclo[1.1.1]pentan-1-yl)acetamide], the IC50 in test [1] lay within 5 to 50 nM. Moreover, in test [2], the EC50 is no more than 500 nM.

For `CCc1c(N2CCN(C(=O)c3ncnc(C)c3O)[C@H]3CC[C@@H]32)c(=O)n2nc(C3=CCOCC3)nc2n1CC(=O)NC12CC(C3CC3)(C1)C2` [I-225, N-(3-cyclopropylbicyclo[1.1.1]pentan-1-yl)-2-(2-(3,6-dihydro-2H-pyran-4-yl)-5-ethyl-6-((1S,6S)-5-(5-hydroxy-6-methylpyrimidine-4-carbonyl)-2,5-diazabicyclo[4.2.0]octan-2-yl)-7-oxo-[1,2,4]triazolo[1,5-a]pyrimidin-4(7H)-yl)acetamide], in test [1], the IC50 lay within 5 to 50 nM. For the same compound, the EC50 in test [2] is no more than 500 nM.

On to `CCc1c(N2CCN(C(=O)c3c(O)ccc4ncoc34)CC2)c(=O)c2sc(-c3ccnc(OC)c3)nc2n1CC(=O)NC12CC(C(F)(F)F)(C1)C2` [I-37, 2-(5-ethyl-6-(4-(6-hydroxybenzo[d]oxazole-7-carbonyl)piperazin-1-yl)-2-(2-methoxypyridin-4-yl)-7-oxothiazolo[4,5-b]pyridin-4(7H)-yl)-N-(3-(trifluoromethyl)bicyclo[1.1.1]pentan-1-yl)acetamide], for which, in test [1], the IC50 is 5 to 50 nM. For the same compound, in test [2], the EC50 lay within 500 to 2000 nM.

For the compound `CCc1c(N2CCN(C(=O)c3cnn(C)c3)CC2)c(=O)n2nc(C3=CCOCC3)nc2n1CC(=O)NC1CC2(C1)CC2F` (stereo not shown) [I-249, 2-(2-(3,6-dihydro-2H-pyran-4-yl)-5-ethyl-6-(4-(1-methyl-1H-pyrazole-4-carbonyl)piperazin-1-yl)-7-oxo-[1,2,4]triazolo[1,5-a]pyrimidin-4(7H)-yl)-N-(1-fluorospiro[2.3]hexan-5-yl)acetamide], the IC50 in test [1] lay within 100 to 500 nM. Besides, the EC50 in test [2] was greater than 5000 nM.

Turning to `CCc1c(N2CCN(C(=O)c3c(O)ccc4ncoc34)CC2)c(=O)n2nc(-c3ccnc(OC)c3)nc2n1CC(=O)NC12CC(C(F)(F)C(F)(F)F)(C1)C2` [I-38, 2-(5-ethyl-6-(4-(6-hydroxybenzo[d]oxazole-7-carbonyl)piperazin-1-yl)-2-(2-methoxypyridin-4-yl)-7-oxo-[1,2,4]triazolo[1,5-a]pyrimidin-4(7H)-yl)-N-(3-(perfluoroethyl)bicyclo[1.1.1]pentan-1-yl)acetamide], the IC50 in test [1] lay within 5 to 50 nM. In addition, in test [2], the EC50 was no more than 500 nM.

With `CCc1c(N2CCN(C(=O)c3ncnc(C)c3O)CC2)c(=O)n2nc(-c3ccnc(OC)c3)nc2n1CC(=O)NC1CC(C(F)(F)F)C1` (stereo not shown) [I-27, 2-(5-ethyl-6-(4-(5-hydroxy-6-methylpyrimidine-4-carbonyl)piperazin-1-yl)-2-(2-methoxypyridin-4-yl)-7-oxo-[1,2,4]triazolo[1,5-a]pyrimidin-4(7H)-yl)-N-(3-(trifluoromethyl)cyclobutyl)acetamide], in test [1], the IC50 is 100 to 500 nM. Moreover, the EC50 in test [2] was greater than 5000 nM.

Consider `CCc1c(N2CCN(C(=O)c3ncnc(C)c3O)[C@H]3CC[C@@H]32)c(=O)c2nn(-c3ccnc(OC)c3)nc2n1CC(=O)NC12CC(C3CCCC3)(C1)C2` [I-183, N-{3-cyclopentylbicyclo[1.1.1]pentan-1-yl}-2-{5-ethyl-6-[(1S,6S)-5-(5-hydroxy-6-methylpyrimidine-4-carbonyl)-2,5-diazabicyclo[4.2.0]octan-2-yl]-2-(2-methoxypyridin-4-yl)-7-oxo-2H,4H,7H-[1,2,3]triazolo[4,5-b]pyridin-4-yl}acetamide], for which the IC50 in test [1] was no more than 5 nM.

`CCc1c(N2CCN(C(=O)c3c(OC)ncc(C4CC4)c3O)CC2)c(=O)c2nn(-c3ccnc(OC)c3)nc2n1CC(=O)NC12CC(C(C)C)(C1)C2` [I-83, 2-{6-[4-(5-cyclopropyl-4-hydroxy-2-methoxypyridine-3-carbonyl)piperazin-1-yl]-5-ethyl-2-(2-methoxypyridin-4-yl)-7-oxo-2H,4H,7H-[1,2,3]triazolo[4,5-b]pyridin-4-yl}-N-[3-(propan-2-yl)bicyclo[1.1.1]pentan-1-yl]acetamide]: the EC50 in test [2] is no more than 500 nM.
